Measurements from patent US10499642B2, “Isoxazoline-substituted benzamides and analogues as insecticides” (SYNGENTA PARTICIPATIONS AG, priority 2015, dated 2019).

Tests used:
Format in all cases: in vivo
Spodoptera littoralis = Spodoptera littoralis (Egyptian cotton leaf worm) cotton leaf disc test; details: foliar, 72 h, read-out: control (at least one of mortality, anti-feedant effect, and growth inhibition)
Method in brief: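 Five first-instar larvae per disc were placed on dried, sprayed cotton leaf discs held on agar. Test solutions were aqueous, made from 10′000 ppm DMSO stocks. At day 3, control was counted when mortality, feeding deterrence or growth inhibition exceeded the untreated discs.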

Diabrotica Balteata = assay: Diabrotica balteata (corn root worm) maize sprout test; details: 96 h, read-out: effect in at least one of the two categories (mortality or growth inhibition)
Method in brief: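 Scoring covered both mortality and growth inhibition relative to untreated controls, 4 days post-infestation. Test solutions at 200 ppm, diluted in water from 10′000 ppm DMSO stocks, were sprayed onto agar-held maize sprouts, which after drying received 6 to 10 L2 larvae each well.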

Tetranychus urticae = Tetranychus urticae (two-spotted spider mite) bean leaf disc test; details: foliar, 192 h
Experimental: Tetranychus urticae (Two-Spotted Spider Mite):
Bean leaf discs on agar in 24-well microtiter plates were sprayed with aqueous test solutions prepared from 10′000 ppm DMSO stock solutions. After drying the leaf discs were infested with a mite population of mixed ages. The samples were assessed for mortality on mixed population (mobile stages) 8 days after infestation.

Thrips tabaci = Thrips tabaci (onion thrips) sunflower leaf disc test; details: foliar, 144 h
Experimental: Thrips tabaci (Onion Thrips):
Sunflower leaf discs were placed on agar in 24-well microtiter plates and sprayed with aqueous test solutions prepared from 10′000 ppm DMSO stock solutions. After drying the leaf discs were infested with a thrips population of mixed ages. The samples were assessed for mortality 6 days after infestation.

Plutella xylostella = Plutella xylostella (diamond back moth) artificial diet test; details: 120 h, read-out: effect in at least one of the two categories (mortality or growth inhibition)
Method in brief: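 At a 200 ppm rate, test solutions were applied to artificial diet and allowed to dry before second-instar larvae were added. Five days later, larval mortality and growth inhibition were rated against untreated samples.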

Myzus persicae = Myzus persicae (green peach aphid) sunflower leaf disc test; details: foliar, 144 h
Experimental: Myzus persicae (Green Peach Aphid):
Sunflower leaf discs were placed on agar in a 24-well microtiter plate and sprayed with test solutions at an application rate of 200 ppm. After drying, the leaf discs were infested with an aphid population of mixed ages. After an incubation period of 6 days after treatment, samples were checked for mortality. The following compounds gave at least 80% mortality of Myzus persicae: […]

O=CN(C(=O)c1ccc(C2=NO[C@@](c3cc(Cl)c(Cl)c(Cl)c3)(C(F)(F)F)C2)cc1Cl)C1CC(Cl)=NO1 (stereo partly drawn) [Compound A017, 2-chloro-N-(3-chloro-4,5-dihydroisoxazol-5-yl)-N-formyl-4-[(5S)-5-(3,4,5-trichlorophenyl)-5-(trifluoromethyl)-4H-isoxazol-3-yl]benzamide]
≥ 80%: percent control (mortality, anti-feedant effect or growth inhibition) at 200 ppm (Spodoptera littoralis) | percent effect (mortality or growth inhibition) at 200 ppm (Diabrotica Balteata) | mortality at 200 ppm (Tetranychus urticae) | mortality at 200 ppm (Thrips tabaci) | percent effect (mortality or growth inhibition) at 200 ppm (Plutella xylostella) | mortality at 200 ppm (Myzus persicae)

Cc1cc(C2=NO[C@@](c3cc(Cl)c(Cl)c(Cl)c3)(C(F)(F)F)C2)ccc1C(=O)NC1CC(OCC2CCC2)=NO1 (stereo partly drawn) [Compound A111, N-[3-(cyclobutylmethoxy)-4,5-dihydroisoxazol-5-yl]-2-methyl-4-[(5S)-5-(3,4,5-trichlorophenyl)-5-(trifluoromethyl)-4H-isoxazol-3-yl]benzamide]
≥ 80%: percent control (mortality, anti-feedant effect or growth inhibition) at 200 ppm (Spodoptera littoralis) | percent effect (mortality or growth inhibition) at 200 ppm (Diabrotica Balteata) | mortality at 200 ppm (Tetranychus urticae) | mortality at 200 ppm (Thrips tabaci) | percent effect (mortality or growth inhibition) at 200 ppm (Plutella xylostella) | mortality at 200 ppm (Myzus persicae)

Cc1cc(C2=NO[C@@](c3cc(Cl)c(Cl)c(Cl)c3)(C(F)(F)F)C2)ccc1C(=O)NC1CC(Br)=NO1 (stereo partly drawn) [Compound A125, N-(3-bromo-4,5-dihydroisoxazol-5-yl)-2-methyl-4-[(5S)-5-(3,4,5-trichlorophenyl)-5-(trifluoromethyl)-4H-isoxazol-3-yl]benzamide]
≥ 80%: percent control (mortality, anti-feedant effect or growth inhibition) at 200 ppm (Spodoptera littoralis) | percent effect (mortality or growth inhibition) at 200 ppm (Diabrotica Balteata) | mortality at 200 ppm (Tetranychus urticae) | mortality at 200 ppm (Thrips tabaci) | percent effect (mortality or growth inhibition) at 200 ppm (Plutella xylostella) | mortality at 200 ppm (Myzus persicae)

COC1=NOC(N(C=O)C(=O)c2ccc(C3=NO[C@@](c4cc(Cl)cc(Cl)c4)(C(F)(F)F)C3)cc2C)C1 (stereo partly drawn) [Compound A134]
≥ 80%: percent control (mortality, anti-feedant effect or growth inhibition) at 200 ppm (Spodoptera littoralis) | percent effect (mortality or growth inhibition) at 200 ppm (Diabrotica Balteata) | mortality at 200 ppm (Tetranychus urticae) | mortality at 200 ppm (Thrips tabaci) | percent effect (mortality or growth inhibition) at 200 ppm (Plutella xylostella) | mortality at 200 ppm (Myzus persicae)

CC1=NOC(NC(=O)c2ccc(C3=NO[C@@](c4cc(Cl)c(Cl)c(Cl)c4)(C(F)(F)F)C3)cc2Br)C1 (stereo partly drawn) [Compound A037, 2-bromo-N-(3-methyl-4,5-dihydroisoxazol-5-yl)-4-[(5S)-5-(3,4,5-trichlorophenyl)-5-(trifluoromethyl)-4H-isoxazol-3-yl]benzamide]
≥ 80%: percent control (mortality, anti-feedant effect or growth inhibition) at 200 ppm (Spodoptera littoralis) | percent effect (mortality or growth inhibition) at 200 ppm (Diabrotica Balteata) | mortality at 200 ppm (Tetranychus urticae) | mortality at 200 ppm (Thrips tabaci) | percent effect (mortality or growth inhibition) at 200 ppm (Plutella xylostella) | mortality at 200 ppm (Myzus persicae)

C=CCOC1=NOC(NC(=O)c2ccc(C3=NO[C@@](c4cc(Cl)c(F)c(Cl)c4)(C(F)(F)F)C3)cc2C)C1 (stereo partly drawn) [Compound A072]
≥ 80%: percent control (mortality, anti-feedant effect or growth inhibition) at 200 ppm (Spodoptera littoralis) | percent effect (mortality or growth inhibition) at 200 ppm (Diabrotica Balteata) | mortality at 200 ppm (Tetranychus urticae) | mortality at 200 ppm (Thrips tabaci) | percent effect (mortality or growth inhibition) at 200 ppm (Plutella xylostella) | mortality at 200 ppm (Myzus persicae)

Cc1cc(C2=NO[C@@](c3cc(Cl)c(F)c(Cl)c3)(C(F)(F)F)C2)ccc1C(=O)NC1CC(OC2CC2)=NO1 (stereo partly drawn) [Compound A078]
≥ 80%: percent control (mortality, anti-feedant effect or growth inhibition) at 200 ppm (Spodoptera littoralis) | percent effect (mortality or growth inhibition) at 200 ppm (Diabrotica Balteata) | mortality at 200 ppm (Tetranychus urticae) | mortality at 200 ppm (Thrips tabaci) | percent effect (mortality or growth inhibition) at 200 ppm (Plutella xylostella) | mortality at 200 ppm (Myzus persicae)
